Experimental data reported in patent publication US4845221A, “Serotonergic substituted piperazinyl tetralins” (American Home Products Corporation, priority 1988, dated 1989).
Entries after “also recorded” stand apart in the source; their conditions may differ.

Columns and labels:
D-2 dopamine receptor = experiment: inhibition of 3H-spiroperidol binding, homogenized limbic brain tissue (D-2 dopamine receptor affinity); conditions: for % Inhibition 1 μM D-2: 3H-spiroperidol, limbic brain tissue
Method: The relatively low D-2 dopamine receptor affinity of the compounds of this invention was established by a modification of the procedure of Fields et al., Brain Res., 136, pp. 578-584 (1977) and Yamamura et al., eds. Neurotransmitter Receptor Binding, Raven Press, N.Y. (1978), wherein homogenized limbic brain tissue is incubated with ^3 H-spiroperidol and various concentrations of test compound, filtered, washed and shaken with Hydrofluor scintillation cocktail (National Diagnostics) and counted in a Packard 460 CD scintillation counter.

[1] = target: T1, 5-HT-1A serotonin receptor (Rattus norvegicus, UniProt P19327); experiment: displacement of [3H]8-OH DPAT from the 5-HT-1A serotonin receptor; assay type: binding; conditions: for inhibition at 1 µM / Ki: [3H]8-OH DPAT; for inhibition at 1 µM: read-out: % Inhibition 1 μm 5 HT1A; for selectivity / separation of 5-HT1A vs D-2 binding (in words): 5-HT1A relative to D-2; for Ki: in parentheses after % inhibition, read-out: Ki 5 HT1A
T1 construct: 44: 1685-1696, 1985; from tissue
T1 sequence (P19327 1-422): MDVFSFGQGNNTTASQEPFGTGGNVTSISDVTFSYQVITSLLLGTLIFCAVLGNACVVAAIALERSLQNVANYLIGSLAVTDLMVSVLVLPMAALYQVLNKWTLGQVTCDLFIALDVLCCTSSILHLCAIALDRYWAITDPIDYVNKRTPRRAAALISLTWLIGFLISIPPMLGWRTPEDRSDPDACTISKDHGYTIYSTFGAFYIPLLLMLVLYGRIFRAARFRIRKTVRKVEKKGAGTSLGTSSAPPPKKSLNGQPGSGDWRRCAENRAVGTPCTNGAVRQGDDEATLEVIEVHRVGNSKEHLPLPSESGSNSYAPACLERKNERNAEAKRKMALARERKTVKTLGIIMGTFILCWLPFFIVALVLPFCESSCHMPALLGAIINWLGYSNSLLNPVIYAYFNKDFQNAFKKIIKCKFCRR
Text: The serotonergic properties of the compounds of this invention were established by standard pharmacologically accepted procedures involving the measurement of the compound's ability to displace [^3 H]8-OH DPAT (dipropylaminotetralin) from the 5-HT-1A serotonin receptor by the procedure of Hall et al., J. Neurochem. 44: 1685-1696, 1985.

[2] = test system: 5-HT1A serotonin receptor; conditions: cited from earlier work
[3] = test system: 5-HT1A (a serotonin receptor subtype); conditions: Middlemiss et al., European J. of Pharmacol. 90 151 (1983); cited from earlier work

For COc1ccc2c(c1)CCC(N1CCN(c3cccc(C(F)(F)F)c3)CC1)C2 (stereo not shown) [Compound 9], the “D-2 dopamine receptor binding/affinity (in words)” value (D-2 dopamine receptor) was “increased D- 2 binding markedly”, the “% Inhibition 1 μM D-2” value (D-2 dopamine receptor) was 65% and the inhibition at 1 µM [1] was 97%.

For CC1(C)CC(=O)N(CCCCN2CCN(c3ncccn3)CC2)C(=O)C1 [gepirone], the “5-HT1A receptor affinity of known agents (in words)” value (from here on “5-HT1A receptor affinity”) [2] is given as “selective 5-HT1A serotonin receptor affinity”.

In the case of COc1ccc2c(c1)CC(N1CCN(c3cccc(C(F)(F)F)c3)CC1)CC2 (stereo not shown) [Compound 6], the “D-2 dopamine receptor binding/affinity (in words)” value (D-2 dopamine receptor) is reported as “relative high dopamine receptor binding”, the “% Inhibition 1 μM D-2” value (D-2 dopamine receptor) is reported as 49% and the “5-HT1A binding/affinity (in words)” value [1] is reported as “reduced 5-HT1A agonism”. For the same compound, the inhibition at 1 µM [1] was 77% and the “selectivity / separation of 5-HT1A vs D-2 binding (in words)” value (shortened to “selectivity / separation of 5-HT1A”) [1] was “unacceptable separation of properties”.

In the case of Oc1ccc2c(c1)CCC(N1CCN(c3ncccn3)CC1)C2 (stereo not shown) [Compound 12], the “D-2 dopamine receptor binding/affinity (in words)” value (D-2 dopamine receptor) is reported as “negligible D-2 binding”, the “% Inhibition 1 μM D-2” value (D-2 dopamine receptor) is reported as 7% and the “5-HT1A binding/affinity (in words)” value [1] is reported as “negligible activity”. The inhibition at 1 µM [1] was 15%.

For COc1ccc2c(c1)CC(N1CCN(c3ncccn3)CC1)CC2 (stereo not shown) [Compound 8], the “% Inhibition 1 μM D-2” value (D-2 dopamine receptor) was 11%, the inhibition at 1 µM [1] was 83% and the “selectivity / separation of 5-HT1A” value [1] was “improved separation of properties with emphasis on 5-HT1A binding”.

In the case of COc1ccc2c(c1)CCC(N1CCN(c3ncccn3)CC1)C2 (stereo not shown) [Compound 11], the “5-HT1A binding/affinity (in words)” value [1] is reported as “marked reduction in 5-HT1A binding” and the inhibition at 1 µM [1] is reported as 44%.

For Oc1cccc2c1CC(N1CCN(c3ncccn3)CC1)CC2 (stereo not shown) [Compound 4, 2-[4-(1,2,3,4-tetrahydro-8-hydroxy-2-naphthalenyl)-1-piperazinyl]pyrimidine], the “% Inhibition 1 μM D-2” value (D-2 dopamine receptor) was 0%, the inhibition at 1 µM [1] was 91% and the “selectivity / separation of 5-HT1A” value [1] was “most selective serotonin receptor binding”. The Ki [1] was 0.109 µM.

For COc1ccc2c(c1)CC(N1CCN(c3ccccc3OC)CC1)CC2 (stereo not shown) [Compound 7], the “D-2 dopamine receptor binding/affinity (in words)” value (D-2 dopamine receptor) was “higher D-2 binding”, the “% Inhibition 1 μM D-2” value (D-2 dopamine receptor) was 65% and the inhibition at 1 µM [1] was 93%.

For COc1cccc2c1CC(N1CCN(c3cccc(C(F)(F)F)c3)CC1)CC2 (stereo not shown) [Compound 1, 1-(1,2,3,4-tetrahydro-8-methoxy-2-naphthalenyl)-4-[3-(trifluoromethyl)phenyl]piperazine], the “% Inhibition 1 μM D-2” value (D-2 dopamine receptor) was 5%, the inhibition at 1 µM [1] was 97% and the Ki [1] was 0.011 µM.

For O=C1CC2(CCCC2)CC(=O)N1CCCCN1CCN(c2ncccn2)CC1 [buspirone], the “5-HT1A receptor affinity” value [2] is given as “potent affinity; also recorded: selective 5-HT1A serotonin receptor affinity”.

For CCCN(CCC)C1CCc2cccc(O)c2C1 (stereo not shown) [8-OH DPAT, 8-hydroxy-2-(di-n-propylamino)-tetralin], the “5-HT1A receptor affinity” value [2] is listed as “selective 5-HT1A serotonin receptor affinity” and the “5-HT1A agonist activity (in words)” value [3] is listed as “selective 5-HT1A (a serotonin receptor subtype) agonist activity”.

In the case of O=C1c2ccccc2S(=O)(=O)N1CCCCN1CCN(c2ncccn2)CC1 [ipsapirone], the “5-HT1A receptor affinity” value [2] is listed as “selective 5-HT1A serotonin receptor affinity”.

In the case of COc1ccccc1N1CCN(C2CCc3cccc(OC)c3C2)CC1 (stereo not shown) [Compound 5], the “D-2 dopamine receptor binding/affinity (in words)” value (D-2 dopamine receptor) is reported as “relatively high dopamine receptor binding”, the “% Inhibition 1 μM D-2” value (D-2 dopamine receptor) is reported as 72% and the “5-HT1A binding/affinity (in words)” value [1] is reported as “almost complete loss of serotonin receptor agonism”. The inhibition at 1 µM [1] was 4% and the “selectivity / separation of 5-HT1A” value [1] was “reverses the selective activity”.

With Oc1ccc2c(c1)CCC(N1CCN(c3cccc(C(F)(F)F)c3)CC1)C2 (stereo not shown) [Compound 10] the “D-2 dopamine receptor binding/affinity (in words)” value (D-2 dopamine receptor) was “which property was retained”, the “% Inhibition 1 μM D-2” value (D-2 dopamine receptor) was 72% and the inhibition at 1 µM [1] was 87%.

In the case of COc1cccc2c1CC(N1CCN(c3ncccn3)CC1)CC2 (stereo not shown) [Compound 3, 2-[4-(1,2,3,4-tetrahydro-8-methoxy-2-naphthalenyl)-1-piperazinyl]pyrimidine], the “% Inhibition 1 μM D-2” value (D-2 dopamine receptor) is reported as 3%, the inhibition at 1 µM [1] is reported as 84.6% and the Ki [1] is reported as 0.063 µM.

For Oc1cccc2c1CC(N1CCN(c3cccc(C(F)(F)F)c3)CC1)CC2 (stereo not shown) [Compound 2, 1-(1,2,3,4-tetrahydro-8-hydroxy-2-naphthalenyl)-4-[3-(trifluromethyl)phenyl]piperazine], the “% Inhibition 1 μM D-2” value (D-2 dopamine receptor) was 46%, the inhibition at 1 µM [1] was 100% and the Ki [1] was 0.014 µM.
